Structures can show the parent of a compound that is named as a salt.
Experiments:
[1] = tested on: SK-N-AS; conditions: human neuroblastoma cell line SK-N-AS; read-out: cytotoxicity IC50; cited from earlier work
[2] = tested on: LAN5; conditions: human neuroblastoma cell line LAN5; read-out: cytotoxicity IC50; cited from earlier work
[3] = tested on: WAC2; conditions: human neuroblastoma cell line WAC2; read-out: cytotoxicity IC50; cited from earlier work
[4] = tested on: LAN1; conditions: human neuroblastoma cell line LAN1; read-out: cytotoxicity IC50; cited from earlier work
[5] = tested on: MiaPaCa; conditions: human pancreatic carcinoma MiaPaCa; read-out: cytotoxicity IC50; cited from earlier work
[6] = tested on: bone marrow CD34-positive cells; conditions: cited from earlier work

| melting point [°C] | Structure (SMILES) | IC50 [1] [nM] | IC50 [2] [nM] | IC50 [3] [nM] | IC50 [4] [nM] | IC50 [5] [nM] | effect on BFU-E and CFU-GM [6] |
| --- | --- | --- | --- | --- | --- | --- | --- |
| 297 to 300 | CC(C)C1NC(=O)c2coc(n2)-c2coc(n2)-c2coc(n2)C(CCCCN)NC(=O)c2coc(n2)-c2coc(n2)-c2coc1n2 (stereo not shown) (as salt: TFA) [Compound 15, Cyclic Lysine-Valine Amine TFA Salt] |  |  |  |  |  |  |
|  | Cc1oc2nc1-c1nc(co1)-c1nc(co1)-c1nc(co1)-c1nc(co1)-c1nc(co1)C1=NC(CS1)c1nc-2c(C)o1 (stereo not shown) [Telomestatin] | 800 | 2500 | 3200 | 4000 | 500 | much lesser effect |

— patent publication US8518928B2, “Therapeutic compounds” (Rutgers, The State University of New Jersey, priority 2006, dated 2013)
